Laboratory results taken from patent publication US20170319562A1, “Compositions and Methods for Extended Therapy with Aminopyridines” (Acorda Therapeutics, Inc., priority 2009, published 2017).
Where two headings read alike, the source gives them in different places.

Experiments:
[1] = test system: patients with multiple sclerosis; assay: Pooled analysis of MS-F202, MS-F203 and MS-F204; assay type: in vivo, human; conditions: Timed-Walk Responders
Description: The primary efficacy variable was analyzed by comparing 4-aminopyridine-SR 10 mg b.i.d., the now FDA-approved clinical dose, to placebo with respect to the proportion of patients with consistent improvements in walking speed (Timed-Walk Responders).
A set of post-hoc analyses using a traditional definition of response based on threshold change was performed to provide additional evidence of the robustness of the primary analyses using the Timed-Walk Responder criterion. For these analyses, a patient was defined as a “% Responder” at various thresholds of response (at average increases in walking speed during the treatment period of at least 10%, 20%, etc. up to 60% from baseline). Fisher's Exact test was used to compare 4-aminopyridine to placebo for each study and for the pooled analysis.
DesignAVIethods: All patients from MS-F202, MS-F203 and MS-F204 were included in a pooled analysis. Patients with clinically definite multiple sclerosis were randomized to 4-aminopyridine-SR 10 mg bid or placebo for up to 14 weeks. The primary efficacy variable was defined as a faster walking speed on the Timed 25-Foot Walk (T25FW) for at least 3 of 4 double-blind efficacy visits compared with the maximum walking speed on any of 5 off-treatment visits, and was determined prospectively for MS-F203 and MS-F204 and retrospectively in MS-F202. The average Walking Speed (“WS”) over four baseline and four treatment visits were compared by treatment and TWR status.
All patients from MS-F202, MS-F203 and MS-F204 were included in a pooled analysis. Patients with clinically definite multiple sclerosis were randomized to 4-aminopyridine-SR 10 mg bid or placebo for up to 14 weeks. The primary efficacy variable was defined as a faster walking speed on the Timed 25-Foot Walk (T25FW) for at least 3 of 4 double-blind efficacy visits compared with the maximum walking speed on any of 5 off-treatment visits, and was determined prospectively for MS-F203 and MS-F204 and retrospectively in MS-F202.
Methods: Data for patients who received the therapeutic dose of 4-aminopyridine-SR, 10mg bid, in three randomized controlled trials (MS-F202, MS-F203, and MS-F204) were pooled (n=394) and compared to placebo (n=237). Comparative analyses were based on the percent change from baseline in WS using the timed 25-foot walk. […] The percent change in WS for the pooled populations for each double-blind visit was evaluated by time interval to account for differences in study schedules (Days 1-21, 22-49, 50-77, and 78-end of double-blind phase). The percent changes were analyzed with analysis of variance with effects for treatment group, study, and site within study.

[2] = cited from earlier work; for bioavailability: AUC(0-∞) i.v. vs p.o. 2 mg/kg
[3] = test system: chronically injured spinal cord of guinea pigs; conditions: cited from earlier work
[4] = human, in vivo, po, 10 mg
[5] = oral, non-sustained release; cited from earlier work
[6] = test system: normal adult myelinated axons; conditions: cited from earlier work
[7] = Single 20 mg intravenous dose, volume of distribution; assay type: in vivo; conditions: plasma
Excerpt: Measurable levels are present in the saliva.

Question: Which results are given for Nc1ccncc1 [4-aminopyridine]?
Answer: double-blind average percent change from baseline in walking speed ([1]; average improvement): 24%; average increase in walking speed by time from last dose ([1]; dose interval 9-10 hrs): 25%; average increase in walking speed by time from last dose ([1]; dose interval 10-11 hrs): 24%; average increase in walking speed by time from last dose ([1]; dose interval 11-12 hrs): 20%; bioavailability ([2]; female rats): ~55%; bioavailability ([2]; male rats): approximately 66.5%; peak plasma concentrations lower in females than in males ([2]; oral administration): 38%; most effective concentration [3]: about 10 μM; time of Cmax after dose administration [4]: approximately 1.1 hours; time of peak plasma concentrations after dosing [5]: ≤ 1 h; concentrations causing gradual depolarization of the axon resting potential [6]: above 1 mM; concentrations at which the action potential shows little or no sensitivity ([6]; normal adult myelinated axons): below 100 μM; Vd [7]: 2.6 L/kg
